This experiment is described as follows: potency compared with codeine and morphine (test not described). The conditions noted are these: no assay, value or method printed.

`COc1ccc2c3c1O[C@H]1C(O)[C@H](C)C[C@H]4[C@@H](C2)N(C)CC[C@]314` (stereo partly drawn) [Compound 8, 7β-Methyl-7,8-dihydrocodeine]: the “potency compared with codeine” value (compared with codeine) is “increased potency”.

With `C[C@@H]1C[C@H]2[C@H]3Cc4ccc(O)c5c4[C@@]2(CCN3C)[C@@H](O5)C1O` (stereo partly drawn) [Compound 9, 7β-Methyl-7,8-dihydromorphine], under “compared with morphine”, the “potency compared with morphine” value is recorded as “increased potency”.
